Where two headings read alike, the source gives them in different places.
Experiments:
[1] = target: T1, Recombinant human NK3 (hNK3) receptor (Homo sapiens, UniProt P29371); assay: NK3 receptor binding, [3H]SR142801 displacement, membrane preparations
T1 construct: expressed in transfected cells
T1 sequence (P29371 1-465): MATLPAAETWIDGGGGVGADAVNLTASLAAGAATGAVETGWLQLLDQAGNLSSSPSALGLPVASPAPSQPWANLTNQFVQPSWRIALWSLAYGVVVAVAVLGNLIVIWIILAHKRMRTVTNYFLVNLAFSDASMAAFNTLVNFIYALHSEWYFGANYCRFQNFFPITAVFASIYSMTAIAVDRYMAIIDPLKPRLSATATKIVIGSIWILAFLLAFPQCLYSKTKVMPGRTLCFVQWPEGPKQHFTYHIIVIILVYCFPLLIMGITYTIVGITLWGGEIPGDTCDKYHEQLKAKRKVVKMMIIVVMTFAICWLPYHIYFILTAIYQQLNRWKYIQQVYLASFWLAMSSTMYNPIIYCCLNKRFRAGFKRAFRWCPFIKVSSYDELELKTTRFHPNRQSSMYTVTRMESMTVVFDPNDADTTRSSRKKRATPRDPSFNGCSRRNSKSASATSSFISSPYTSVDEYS
Outline: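 Room-temperature, 90-min filtration binding assay using about 2.5 μg recombinant receptor membranes per well; separation on polyethyleneimine-treated glass-fibre (GF/C) filters and liquid scintillation read-out, with 10 μM SB222200 for nonspecific binding.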

[2] = target: human NK1 receptor (Homo sapiens, UniProt P25103); assay: NK1 receptor binding, [3H]substance P displacement, CHO cell membranes
Chain of human NK1 receptor (P25103 whole entry): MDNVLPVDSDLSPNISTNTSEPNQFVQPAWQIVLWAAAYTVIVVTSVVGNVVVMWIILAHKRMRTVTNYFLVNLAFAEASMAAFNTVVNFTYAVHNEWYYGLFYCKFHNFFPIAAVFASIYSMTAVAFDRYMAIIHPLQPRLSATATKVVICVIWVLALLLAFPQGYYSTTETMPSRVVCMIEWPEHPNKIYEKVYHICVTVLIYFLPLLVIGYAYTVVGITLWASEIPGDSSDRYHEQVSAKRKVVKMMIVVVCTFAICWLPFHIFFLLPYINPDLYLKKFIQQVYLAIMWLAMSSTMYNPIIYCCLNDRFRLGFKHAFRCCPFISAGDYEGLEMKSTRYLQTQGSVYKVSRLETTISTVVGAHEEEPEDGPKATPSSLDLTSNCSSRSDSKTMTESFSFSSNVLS

[3] = second value of the cell pKi NK1/NK3, hNK3 receptor, [3H]SR142801
[4] = first value of the cell pKi NK1/NK3, human NK1 receptor, [3H]substance P

| Ki [1, 3] [nM] | Ki [2, 4] [nM] | Ki ([1]; second value of the cell NK1/NK3, read-out: pKi NK3 (converted)) [nM] | Ki ([2]; first value of the cell NK1/NK3, read-out: pKi NK1 (converted)) [nM] | SMILES |
| --- | --- | --- | --- | --- |
| 8.71 | 0.537 | – | – | CN(C(=O)C(C)(C)c1cc(C(F)(F)F)cc(C(F)(F)F)c1)c1cnc(N2C[C@@H](O)[C@@H](O)C2)cc1-c1ccccc1Cl [Example 48, (3R,4S)-2-(3,5-Bis-trifluoromethyl-phenyl)-N-[4-(2-chloro-phenyl)-6-(3,4-dihydroxy-pyrrolidin-1-yl)-pyridin-3-yl]-N-methyl-isobutyramide] |
| – | – | 4.27 | 5.13 | Cc1ccncc1-c1cc(N(C)CCO)ncc1N(C)C(=O)C(C)(C)c1cc(C(F)(F)F)cc(C(F)(F)F)c1 [Example 294, 2-(3,5-Bis-trifluoromethyl-phenyl)-N-{6′-[(2-hydroxy-ethyl)-methyl-amino]-4-methyl-[3,4′]bipyridinyl-3′-yl}-N-methyl-isobutyramide] |
| 31.6 | 4.27 | – | – | CN(C(=O)C(C)(C)c1cc(C(F)(F)F)cc(C(F)(F)F)c1)c1cnc(N2C[C@H](O)C[C@H]2CO)cc1-c1ccc(Cl)c(Cl)c1 [Example 135, (2S,4R)-2-(3,5-Bis-trifluoromethyl-phenyl)-N-[4-(3,4-dichloro-phenyl)-6-(4-hydroxy-2-hydroxymethyl-pyrrolidin-1-yl)-pyridin-3-yl]-N-methyl-isobutyramide] |
| 0.708 | 4.27 | – | – | Cc1ccccc1-c1cc(N2CCC[C@H]2CO)ncc1N(C)C(=O)C(C)(C)c1cc(Cl)cc(OC(F)F)c1 [Example 36, (S)-2-(3-Chloro-5-difluoromethoxy-phenyl)-N-[6-(2-hydroxymethyl-pyrrolidin-1-yl)-4-o-tolyl-pyridin-3-yl]-N-methyl-isobutyramide] |
| 35.5 | 2.4 | – | – | CC(=O)N[C@H]1CCN(c2cc(-c3ccccc3Cl)c(N(C)C(=O)C(C)(C)c3cc(C(F)(F)F)cc(C(F)(F)F)c3)cn2)C1 [Example 43, (S)-N-[6-(3-Acetylamino-pyrrolidin-1-yl)-4-(2-chloro-phenyl)-pyridin-3-yl]-2-(3,5-bis-trifluoromethyl-phenyl)-N-methyl-isobutyramide] |
| 0.832 | 1.66 | – | – | CN(C(=O)C(C)(C)c1cc(C(F)(F)F)cc(C(F)(F)F)c1)c1cnc(N2CCC[C@H]2CO)cc1-c1ccccc1Cl [Example 42, (S)-2-(3,5-Bis-trifluoromethyl-phenyl)-N-[4-(2-chloro-phenyl)-6-(2-hydroxymethyl-pyrrolidin-1-yl)-pyridin-3-yl]-N-methyl-isobutyramide] |
| 3.47 | 0.933 | – | – | Cc1ccccc1-c1cc(N2CCS(=O)(=O)CC2CO)ncc1N(C)C(=O)C(C)(C)c1cc(C(F)(F)F)cc(C(F)(F)F)c1 (racemic) [Example 178, (RS)-2-(3,5-Bis-trifluoromethyl-phenyl)-N-[6-(3-hydroxymethyl-1,1-dioxo-1λ^6-thiomorpholin-4-yl)-4-o-tolyl-pyridin-3-yl]-N-methyl-isobutyramide] |
| 8.91 | 1.26 | – | – | C[C@H](CO)Nc1cc(-c2ccccc2Cl)c(N(C)C(=O)C(C)(C)c2cc(C(F)(F)F)cc(C(F)(F)F)c2)cn1 [Example 80, (R)-2-(3,5-Bis-trifluoromethyl-phenyl)-N-[4-(2-chloro-phenyl)-6-(2-hydroxy-1-methyl-ethylamino)-pyridin-3-yl]-N-methyl-isobutyramide] |
| 4.07 | 2.09 | – | – | Cc1cc(F)ccc1-c1cc(N2CCC(=O)C2)ncc1N(C)C(=O)C(C)(C)c1cc(C(F)(F)F)cc(C(F)(F)F)c1 [Example 111, 2-(3,5-Bis-trifluoromethyl-phenyl)-N-[4-(4-fluoro-2-methyl-phenyl)-6-(3-oxo-pyrrolidin-1-yl)-pyridin-3-yl]-N-methyl-isobutyramide] |
| 4.68 | 0.589 | – | – | CCN([C@H]1CCN(c2cc(-c3ccc(F)cc3C)c(N(C)C(=O)C(C)(C)c3cc(C(F)(F)F)cc(C(F)(F)F)c3)cn2)C1)S(C)(=O)=O [Example 106] |

From US8404708B2, “Dual NK1/NK3 receptor antagonists” (Hoffmann-La Roche Inc., priority 2004, dated 2013)
